Measured values from patent publication EP4631940A1, “COMPOUND TARGETING PAN-KRAS PROTEIN DEGRADATION AGENT AND USE THEREOF” (Betta Pharmaceuticals Co., Ltd., priority 2022, dated 2024).
Read-outs that look alike come from different tables or passages of the source.

Tests used:
H358 = experiment: Cell proliferation experiment (CellTiter-Glo); type: cell-based; settings: H358, KRAS mutation type G12C, 96 h incubation
AGS = experiment: Cell proliferation experiment (CellTiter-Glo); type: cell-based; settings: read-out: IC50(nM) AGS
in vitro [1] = settings: mouse, microsomes
in vitro [2] = settings: dog, microsomes
SW620 = experiment: Cell proliferation experiment (CellTiter-Glo); type: cell-based; settings: read-out: IC50(nM) SW620
KRAS G12D [3] = biological target: T1, KRAS G12D (Homo sapiens, UniProt P01116, G12D)
in vitro [4] = settings: rat, microsomes
KRAS G12D [5] = biological target: T1, KRAS G12D; experiment: cell-based; settings: AGS
in vitro [6] = settings: human, microsomes

T1 sequence (P01116 1-188 isoform P01116-2 G12D): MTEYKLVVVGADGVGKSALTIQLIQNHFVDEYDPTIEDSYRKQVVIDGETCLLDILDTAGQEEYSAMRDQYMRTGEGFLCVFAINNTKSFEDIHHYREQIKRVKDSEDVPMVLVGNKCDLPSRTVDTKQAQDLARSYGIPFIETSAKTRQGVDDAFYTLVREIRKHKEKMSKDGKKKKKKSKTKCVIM

Molecule	IC50 (H358; Homo sapiens, NCI-H358) [nM]	IC50 (AGS; Homo sapiens, AGS, 96 h) [nM]	microsomal CLint (in vitro [1]) [µL/min/mg]	microsomal CLint (in vitro [2]) [µL/min/mg]	IC50 (SW620; Homo sapiens, SW-620, 96 h) [nM]	DC50 (KRAS G12D [3]) [nM]	microsomal CLint (in vitro [4]) [µL/min/mg]	Dmax (KRAS G12D [5]) [%]	microsomal CLint (in vitro [6]) [µL/min/mg]	IC50 (H358) [nM]	IC50 (SW620) [nM]	IC50 (AGS) [nM]
CCc1c(F)ccc2cc(O)cc(-c3ncc4c(N5CCCC(C)(O)C5)nc(OCC5(CN6CCC(COc7ccc(C(=O)N[C@H](C(=O)N8C[C@H](O)C[C@H]8C(=O)N[C@@H](C)c8ccc(-c9scnc9C)cc8)C(C)(C)C)cc7)CC6)CC5)nc4c3F)c12 (stereo partly drawn) [Compound 1, (2S,4R)-1-((2S)-2-(4-((1-((1-(((7-(8-ethyl-7-fluoro-3-hydroxynaphthalen-1-yl)-8-fluoro-4-(3-hydroxy-3-methylpiperidin-1-yl)pyrido[4,3-d]pyrimidin-2-yl)oxy)methyl)cyclopropyl)methyl)piperidin-4-yl)methoxy)benzamido)-3,3-dimethylbutanoyl)-4-hydroxy-N-((S)-1-(4-(4-methylthiazol-5-yl)phenyl)ethyl)pyrrolidine-2-carboxamide]	1080	109										
CCc1c(F)ccc2cc(O)cc(-c3ncc4c(N5CCC[C@@](C)(O)C5)nc(OCC5(CN6CCC7(CC6)CN(c6ccc(-c8cn([C@H](C(=O)N9C[C@H](O)C[C@H]9C(=O)N[C@@H](C)c9ccc(-c%10scnc%10C)cc9)C(C)C)nn8)cc6)C7)CC5)nc4c3F)c12 [Compound 75]	40	11	8.6	22.1	122	24	20.7	95	1			
C#Cc1c(F)ccc2cc(O)cc(-c3ncc4c(N5CCCn6nc(C(=O)N(C)C)cc6C5)nc(OCC5(CN6CCC(COc7ccc(C(=O)N[C@H](C(=O)N8C[C@H](O)C[C@H]8C(=O)N[C@@H](C)c8ccc(-c9scnc9C)cc8)C(C)(C)C)cc7)CC6)CC5)nc4c3F)c12 [Compound 89]										635	1420	193
CCc1c(F)ccc2cc(O)cc(-c3ncc4c(N5CCC[C@@](C)(O)C5)nc(OCC5(CN6CCC(F)(COc7cc([C@H](C(=O)N8C[C@H](O)C[C@H]8C(=O)N[C@@H](C)c8ccc(-c9scnc9C)cc8)C(C)C)on7)CC6)CC5)nc4c3F)c12 [Compound 100]		11	3.2	57.5	38	9.5	7.9	95	47			
CCc1c(F)ccc2cc(O)cc(-c3ncc4c(N5CCC[C@@](C)(O)C5)nc(OCC5(CN6CCC7(CC6)CN(c6cc([C@H](C(=O)N8C[C@H](O)C[C@H]8C(=O)N[C@@H](C)c8ccc(-c9scnc9C)cc8)C(C)C)on6)C7)CC5)nc4c3F)c12 [Compound 105]		12	13.3	28.5		8.9	5.9	95	9.9			
CCc1c(F)ccc2cc(O)cc(-c3ncc4c(N5CCC[C@@](C)(O)C5)nc(OCC5(CN6CCN(CC7CCN(c8cc([C@H](C(=O)N9C[C@H](O)C[C@H]9C(=O)N[C@@H](C)c9ccc(-c%10scnc%10C)cc9)C(C)C)on8)CC7)CC6)CC5)nc4c3F)c12 [Compound 111]		20	10.6	8.4		21	15.7	95	21.7			
CCc1c(F)ccc2cc(O)cc(-c3ncc4c(N5CCC[C@@](C)(O)C5)nc(OCC5(CN6CCC(Oc7cc([C@H](C(=O)N8C[C@H](O)C[C@H]8C(=O)N[C@@H](C)c8ccc(-c9scnc9C)cc8)C(C)C)on7)CC6)CC5)nc4c3F)c12 [Compound 114, (2S,4R)-1-((R)-2-(3-((1-((1-(((7-(8-ethyl-7-fluoro-3-hydroxynaphthalen-1-yl)-8-fluoro-4-((R)-3-hydroxy-3-methylpiperidin-1-yl)pyrido[4,3-d]pyrimidin-2-yl)oxy)methyl)cyclopropyl)methyl)piperidin-4-yl)oxy)isoxazol-5-yl)-3-methylbutanoyl)-4-hydroxy-N-((S)-1-(4-(4-methylthiazol-5-yl)phenyl)ethyl)pyrrolidine-2-carboxamide]		13	18.9	50.5		18	25.2	95	46.5			
CCc1c(F)ccc2cc(O)cc(-c3ncc4c(N5CCC[C@@](C)(O)C5)nc(OCC5(CN6CCC(N7CCN(c8cc([C@H](C(=O)N9C[C@H](O)C[C@H]9C(=O)N[C@@H](C)c9ccc(-c%10scnc%10C)cc9)C(C)C)on8)CC7)CC6)CC5)nc4c3F)c12 [Compound 115]		29	15.9	18.3		21	13.8	95	32.1			
C=C1CN2[C@H](COc3ccc(-c4cn([C@H](C(=O)N5C[C@H](O)C[C@H]5C(=O)N[C@@H](C)c5ccc(-c6scnc6C)cc5)C(C)C)nn4)cn3)CC[C@@]2(COc2nc(N3CCC[C@@](C)(O)C3)c3cnc(-c4cc(O)cc5ccc(F)c(CC)c45)c(F)c3n2)C1 [Compound 124]		15	18.6	88	135	21	9.1	95	49.7			
CCc1c(F)ccc2cc(O)cc(-c3ncc4c(N5CCC[C@@](C)(O)C5)nc(OCC5(CN6CCN(c7cnc(-c8cn([C@H](C(=O)N9C[C@H](O)C[C@H]9C(=O)N[C@@H](C)c9ccc(-c%10scnc%10C)cc9)C(C)C)nn8)cn7)CC6)CC5)nc4c3F)c12 [Compound 134]		10	6.4	5.5	58	5.9	3	95	28.4			
CCc1c(F)ccc2cc(O)cc(-c3ncc4c(N5CCC[C@@](C)(O)C5)nc(OCC5(CN6CCC(n7cc(-c8cn([C@H](C(=O)N9C[C@H](O)C[C@H]9C(=O)N[C@@H](C)c9ccc(-c%10scnc%10C)cc9)C(C)C)nn8)cn7)CC6)CC5)nc4c3F)c12 [Compound 138]		14	13.6	25.5	102	13	5.7	95	11.2			
C=C1CN2[C@@H](COC(=O)N3CCC4(CC3)CC(c3cn([C@H](C(=O)N5C[C@H](O)C[C@H]5C(=O)N[C@@H](C)c5ccc(-c6scnc6C)cc5)C(C)C)nn3)C4)CC[C@@]2(COc2nc(N3CCC[C@@](C)(O)C3)c3cnc(-c4cc(O)cc5ccc(F)c(CC)c45)c(F)c3n2)C1 [Compound 143]	24	16			58	12		95				
CCc1c(F)ccc2cc(O)cc(-c3ncc4c(N5CCC[C@@](C)(O)C5)nc(OCC5(CN6CCC(Oc7cnc(-c8cn([C@H](C(=O)N9C[C@H](O)C[C@H]9C(=O)N[C@@H](CO)c9ccc(-c%10scnc%10C)cc9)C(C)C)nn8)cn7)CC6)CC5)nc4c3F)c12 [Compound 178]										5.7	9.4	2.5
CCc1c(F)ccc2cc(O)cc(-c3ncc4c(N5CCC[C@@](C)(O)C5)nc(OCC5(CN6CCN(C7CN(c8cnc(-c9cn([C@H](C(=O)N%10C[C@H](O)C[C@H]%10C(=O)N[C@@H](C)c%10ccc(-c%11scnc%11C)cc%10)C(C)C)nn9)cn8)C7)CC6)CC5)nc4c3F)c12 [Compound 183]										12	11	3
CCc1c(F)ccc2cc(O)cc(-c3ncc4c(N5CCC[C@@](C)(O)C5)nc(OCC5(CN6CCC7(CC6)CN(Cc6cnc(-c8cn([C@H](C(=O)N9C[C@H](O)C[C@H]9C(=O)N[C@@H](C)c9ccc(-c%10scnc%10C)cc9)C(C)C)nn8)cn6)C7)CC5)nc4c3F)c12 [Compound 189]										15	13	2.9
(2S,4R)-1-((2R)-2-(3-(3-(4-((1-((7-(8-ethyl-7-fluoro-3-hydroxynaphthalen-1-yl)-8-fluoro-4-((R) 3-hydroxy-3-methylpiperidin-1-yl)pyrido[4,3-d]pyrimidin-2-yl)oxy)methyl)cyclopropyl)methyl) piperazin-1-yl)pyrrolidin-1-yl)isoxazol-5-yl)-3-methylbutanoyl)-4-hydroxy-N-((S)-1-(4-(4-meth ylthiazol-5-yl)phenyl)ethyl)pyrrolidine-2-carboxamide [Compound 166]										21	33	4.9
(2S,4R)-1-((S)-2-(4-(5-(7-((7-(8-ethyl-7-fluoro-3-hydroxynaphthalen-1-yl)-8-fluoro-4-((R)-3-hy droxy-3-methylpiperidin-1-yl)pyrido[4,3-d]pyrimidin-2-yl)oxy)methyl)cyclopropyl)methyl)-2,7-azaspiro[3.5]nonan-2-yl)pyrazin-2-yl)-1H-1,2,3-triazol-1-yl)-3-methylbutanoyl)-4-hydroxy-N-(( R)-2-hydroxy-1-(4-(4-methylthiazol-5-yl)phenyl)ethyl)pyrrolidine-2-carboxamide [Compound 170]										8.5	19	3.6
(2S,4R)-1-((S)-2-(4-(5-((1-((1-(((7-(8-ethyl-7-fluoro-3-hydroxynaphthalen-1-yl)-8-fluoro-4-((R)-3-hydroxy-3-methylpiperidin-1-yl)pyrido[4,3-d]pyrimidin-2-yl)oxy)methyl)cyclopropyl)methyl) piperidin-4-yl)oxy)pyrazin-2-yl)-1H-1,2,3-triazol-1-yl)-3-methylbutanoyl)-4-hydroxy-N-((1R,2R )-2-hydroxy-3-methyl-1-(4-(4-methylthiazol-5-yl)phenyl)butyl)pyrrolidine-2-carboxamide [Compound 184]										15	11	2.7
